The experiment has as its target T1, 3-oxo-5-alpha-steroid 4-dehydrogenase 1 (Homo sapiens, UniProt P18405).
T1 sequence (P18405 whole entry): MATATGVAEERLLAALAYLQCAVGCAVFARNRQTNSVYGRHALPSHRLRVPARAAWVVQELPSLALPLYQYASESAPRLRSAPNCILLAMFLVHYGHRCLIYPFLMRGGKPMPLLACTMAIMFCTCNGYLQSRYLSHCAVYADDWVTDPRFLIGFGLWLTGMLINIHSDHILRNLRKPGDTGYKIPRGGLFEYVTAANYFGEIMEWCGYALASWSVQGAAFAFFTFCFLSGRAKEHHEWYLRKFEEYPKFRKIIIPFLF
In words: In vitro inhibitory concentration required to inhibit Steroid 5-alpha-reductase type 1 in cultured Hs 68 human foreskin fibroblast cells. The experiment is classed as cell-based. As to conditions: read-out: Log 1/IC50 (converted).
With `Cc1ccc2c(c1)CCC1C2CCC(=O)N1C` (stereo unspecified), the IC50 was 32.4 nM.

Take `CN1C(=O)CCC2(C)c3ccc(F)cc3CCC12` (stereo unspecified): the IC50 was 115 nM. As for `CN1C(=O)CCC2=C1CCc1cc(F)ccc12`, the figure is 151 nM. On to `CN1C(=O)CCC2=C1CCc1ccccc12`, for which the IC50 is 1000 nM.

As for `COc1ccc2c(c1)CCC1C2CCC(=O)N1C` (stereo unspecified), the IC50 was 115 nM.

In the case of `CN1C(=O)CCC2=C1CCc1cc(Cl)ccc12`, the IC50 is 174 nM.

With `CN1C(=O)CCC2=C1CCc1cc(Br)ccc12`, the IC50 was 60.3 nM. With `CN1C(=O)CCC2c3ccccc3CCC21` (stereo unspecified), the IC50 is 562 nM.

Take `CN1C(=O)CCC2(C)c3ccccc3CCC12` (stereo unspecified): the IC50 was 1000 nM. `CN1C(=O)CCC2c3ccc(F)cc3CCC21` (stereo unspecified): the IC50 is 34.7 nM. With `CN1C(=O)CCC2c3ccc(Br)cc3CCC21` (stereo unspecified), the IC50 is 34.7 nM.

As to `CN1C(=O)CCC2c3ccc(Cl)cc3CCC21` (stereo unspecified), the IC50 was 7.94 nM. Regarding `CN1C(=O)CCC2(C)c3ccc(Cl)cc3CCC12` (stereo unspecified), the IC50 was 32.4 nM. `Cc1ccc2c(c1)CCC1=C2CCC(=O)N1C`: the IC50 was 32.4 nM. Regarding `CN1C(=O)CCC2c3ccc(C(F)(F)F)cc3CCC21` (stereo unspecified), the IC50 was 89.1 nM. As to `CN1C(=O)CCC2c3ccc(I)cc3CCC21` (stereo unspecified), the IC50 was 79.4 nM.

(Values after ChEMBL document CHEMBL1127006, “QSAR study of benzoquinolinones as inhibitors of human type 1 5--reductase” (Bioorg Med Chem Lett, 1993).)
